Reference: US5972953A, “Brain cell protective agent” (priority 1993, dated 1999)
Like-named read-outs stand apart in the source and are kept apart here.

System: cultured nerve cells (cerebral cortex)
Assay: cells
Assay type: cell-based, Wistar rat
Settings: Rattus norvegicus, Cerebral cortex neuron
[1] = 10 mM glutamate, 24 hours at 37° C., LDH leakage, read-out: ED50 (the source's name)

| Structure (SMILES) | EC50 [1] [nM] | EC50 (24 h, read-out: ED50) [nM] |
| --- | --- | --- |
| CN(C(=O)/C=C/c1ccoc1)[C@@H]1CC[C@@]2(O)[C@H]3Cc4ccc(O)c5c4[C@@]2(CCN3CC2CC2)[C@H]1O5 (relative stereo) [Compound 43, 17-cyclopropylmethyl-3,14β-dihydroxy-4,5α-epoxy-6β-[N-methyl-trans-3-(3-furyl)acrylamido]morphinan] | 32600 | – |
| CN(C(=O)/C=C/c1ccco1)[C@@H]1CC[C@@]2(O)[C@H]3Cc4ccc(O)c5c4[C@@]2(CCN3CC2CC2)[C@H]1O5 (relative stereo) [Compound 53, 17-cyclopropylmethyl-3,14β-dihydroxy-4,5α-epoxy-6β-[N-methyl-trans-3-(2-furyl)acrylamido]morphinan] | 18200 | – |
| CN(C(=O)/C=C/c1ccsc1)[C@@H]1CC[C@@]2(O)[C@H]3Cc4ccc(O)c5c4[C@@]2(CCN3CC2CC2)[C@H]1O5 (relative stereo) [Compound 54, 17-cyclopropylmethyl-3,14β-dihydroxy-4,5α-epoxy-6β-[N-methyl-trans-3-(3-thienyl)acrylamido]morphinan] | 13500 | – |
| O=C(/C=C/c1ccoc1)S[C@@H]1CC[C@@]2(O)[C@H]3Cc4ccc(O)c5c4[C@@]2(CCN3CC2CC2)[C@H]1O5 (relative stereo) [Compound 119, 17-cyclopropylmethyl-4,5α-epoxy-3,14β-dihydroxy-6β-[trans-3-(3-furyl)acryloylthio]morphinan] | 1470 | – |
| CCN(Cc1ccccc1)[C@@H]1CC[C@@]2(O)[C@H]3Cc4ccc(O)c5c4[C@@]2(CCN3CC2CC2)[C@H]1O5 [Compound 5, 17-cyclopropylmethyl-3,14β-dihydroxy-4,5α-epoxy-6β-(N-ethylbenzylamino)morphinan] | 24600 | – |
| CC(C)N(Cc1ccccc1)[C@@H]1CC[C@@]2(O)[C@H]3Cc4ccc(O)c5c4[C@@]2(CCN3CC2CC2)[C@H]1O5 [Compound 6, 17-cyclopropylmethyl-3,14β-dihydroxy-4,5α-epoxy-6β-(N-isopropylbenzylamino)morphinan] | 1930 | – |
| CC(C)CN(Cc1ccccc1)[C@@H]1CC[C@@]2(O)[C@H]3Cc4ccc(O)c5c4[C@@]2(CCN3CC2CC2)[C@H]1O5 [Compound 7, 17-cyclopropylmethyl-3,14β-dihydroxy-4,5α-epoxy-6β-(N-isobutylbenzylamino)morphinan] | 320 | – |
| CCCCN(Cc1ccccc1)[C@@H]1CC[C@@]2(O)[C@H]3Cc4ccc(O)c5c4[C@@]2(CCN3CC2CC2)[C@H]1O5 [Compound 8, 17-cyclopropylmethyl-3,14β-dihydroxy-4,5α-epoxy-6β-(N-butylbenzylamino)morphinan] | 1200 | – |
| CCCCCN(Cc1ccccc1)[C@@H]1CC[C@@]2(O)[C@H]3Cc4ccc(O)c5c4[C@@]2(CCN3CC2CC2)[C@H]1O5 [Compound 9, 17-cyclopropylmethyl-3,14β-dihydroxy-4,5α-epoxy-6β-(N-pentylbenzylamino)morphinan] | 290 | – |
| Oc1ccc2c3c1O[C@H]1[C@H](N(CCc4ccccc4)Cc4ccccc4)CC[C@@]4(O)[C@@H](C2)N(CC2CC2)CC[C@]314 [Compound 10, 17-cyclopropylmethyl-3,14β-dihydroxy-4,5α-epoxy-6β-(N-2-phenethylbenzylamino)morphinan] | 280 | – |
| Oc1ccc2c3c1O[C@H]1[C@H](N(Cc4ccccc4)CC4CCCCC4)CC[C@@]4(O)[C@@H](C2)N(CC2CC2)CC[C@]314 [Compound 11, 17-cyclopropylmethyl-3,14β-dihydroxy-4,5α-epoxy-6β-[N-(cyclohexylmethyl)benzylamino]morphinan] | 170 | – |
| Oc1ccc2c3c1O[C@H]1[C@H](N(CCCc4ccccc4)Cc4ccccc4)CC[C@@]4(O)[C@@H](C2)N(CC2CC2)CC[C@]314 [Compound 12, 17-cyclopropylmethyl-3,14β-dihydroxy-4,5α-epoxy-6β-(N-3-phenylpropylbenzylamino) morphinan] | 130 | – |
| Oc1ccc2c3c1O[C@H]1[C@H](N(CCCCc4ccccc4)Cc4ccccc4)CC[C@@]4(O)[C@@H](C2)N(CC2CC2)CC[C@]314 [Compound 13, 17-cyclopropylmethyl-3,14β-dihydroxy-4,5α-epoxy-6β-(N-4-phenylbutylbenzylamino) morphinan] | 210 | – |
| Oc1ccc2c3c1O[C@H]1[C@H](N(Cc4ccccc4)CC(c4ccccc4)c4ccccc4)CC[C@@]4(O)[C@@H](C2)N(CC2CC2)CC[C@]314 [Compound 14, 17-cyclopropylmethyl-3,14β-dihydroxy-4,5α-epoxy-6β-[N-(2,2-diphenylethyl)benzylamino)morphinan] | 110 | – |
| CN(C(=O)C1CCCCC1)[C@H]1CC[C@@]2(O)[C@H]3Cc4ccc(O)c5c4[C@@]2(CCN3CC2CC2)[C@H]1O5 [Compound 31, 17-cyclopropylmethyl-3,14β-dihydroxy-4,5α-epoxy-6α-(N-methylcyclohexylcarboxamido)morphinan] | 2530 | – |
| O=C(Cc1ccc(Cl)c(Cl)c1)N[C@H]1CC[C@@]2(O)[C@H]3Cc4ccc(O)c5c4[C@@]2(CCN3CC2CC2)[C@H]1O5 [Compound 36, 17-cyclopropylmethyl-3,14β-dihydroxy-4,5α-epoxy-6α-(3,4-dichlorophenylacetoamido) morphinan] | 1010 | – |

| Structure (SMILES) | EC50 [1] [nM] | EC50 (24 h, read-out: ED50) [nM] |
| --- | --- | --- |
| CC(C)CN(C(=O)CCCCCc1ccccc1)[C@H]1CC[C@@]2(O)[C@H]3Cc4ccc(O)c5c4[C@@]2(CCN3CC2CC2)[C@H]1O5 [Compound 37, 17-cyclopropylmethyl-3,14β-dihydroxy-4,5α-epoxy-6α-(N-isobutyl-6-phenylhexanoamido)morphinan] | 60 | – |
| CC(C)CN(C(=O)Cc1ccc(Cl)c(Cl)c1)[C@@H]1CC[C@@]2(O)[C@H]3Cc4ccc(O)c5c4[C@@]2(CCN3CC2CC2)[C@H]1O5 [Compound 39, 17-cyclopropylmethyl-3,14β-dihydroxy-4,5α-epoxy-6β-(N-isobutyl-3,4-dichlorophenylacetoamido)morphinan] | 390 | – |
| CN(C(=O)c1ccccc1)[C@@H]1CC[C@@]2(O)[C@H]3Cc4ccc(O)c5c4[C@@]2(CCN3CC2CC2)[C@H]1O5 [Compound 45, 17-cyclopropylmethyl-3,14β-dihydroxy-4,5α-epoxy-6β-(N-methylbenzamido)morphinan] | 3720 | – |
| CN(C(=O)Cc1ccccc1)[C@@H]1CC[C@@]2(O)[C@H]3Cc4ccc(O)c5c4[C@@]2(CCN3CC2CC2)[C@H]1O5 [Compound 47, 17-cyclopropylmethyl-3,14β-dihydroxy-4,5α-epoxy-6β-(N-methylphenylacetoamido)morphinan] | 17100 | – |
| CCCCOC(=O)N(C)[C@@H]1CC[C@@]2(O)[C@H]3Cc4ccc(O)c5c4[C@@]2(CCN3CC2CC2)[C@H]1O5 [Compound 48, 17-cyclopropylmethyl-3,14β-dihydroxy-4,5α-epoxy-6β-(N-methylbutyroxycarbamido)morphinan] | 7040 | – |
| CCCCCC(=O)N(C)[C@@H]1CC[C@@]2(O)[C@H]3Cc4ccc(O)c5c4[C@@]2(CCN3CC2CC2)[C@H]1O5 [Compound 49, 17-cyclopropylmethyl-3,14β-dihydroxy-4,5α-epoxy-6β-(N-methylhexanoamido)morphinan] | 29900 | – |
| COc1cccc(/C=C/C(=O)N(C)[C@@H]2CC[C@@]3(O)[C@H]4Cc5ccc(O)c6c5[C@@]3(CCN4CC3CC3)[C@H]2O6)c1 [Compound 50, 17-cyclopropylmethyl-3,14β-dihydroxy-4,5α-epoxy-6β-(N-methyl-3-methoxycinnamamido)morphinan] | 3440 | – |
| CN(C(=O)CCC1CCCC1)[C@@H]1CC[C@@]2(O)[C@H]3Cc4ccc(O)c5c4[C@@]2(CCN3CC2CC2)[C@H]1O5 [Compound 51, 17-cyclopropylmethyl-3,14β-dihydroxy-4,5α-epoxy-6β-(N-methyl-3-cyclopentylpropioamido)morphinan] | 13600 | – |
| CN(C(=O)c1ccc2ccccc2c1)[C@@H]1CC[C@@]2(O)[C@H]3Cc4ccc(O)c5c4[C@@]2(CCN3CC2CC2)[C@H]1O5 [Compound 52, 17-cyclopropylmethyl-3,14β-dihydroxy-4,5α-epoxy-6β-(N-methyl-2-naphthamido)morphinan] | 1490 | – |
| CN(C(=O)/C=C/c1ccccc1C(F)(F)F)[C@@H]1CC[C@@]2(O)[C@H]3Cc4ccc(O)c5c4[C@@]2(CCN3CC2CC2)[C@H]1O5 [Compound 55, 17-cyclopropylmethyl-3,14β-dihydroxy-4,5α-epoxy-6β-(N-methyl-2-trifluoromethylcinnamamido)morphinan] | 1730 | – |
| CN(C(=O)/C=C/c1ccc(C(F)(F)F)cc1)[C@@H]1CC[C@@]2(O)[C@H]3Cc4ccc(O)c5c4[C@@]2(CCN3CC2CC2)[C@H]1O5 [Compound 56, 17-cyclopropylmethyl-3,14β-dihydroxy-4,5α-epoxy-6β-(N-methyl-4-trifluoromethylcinnamamido)morphinan] | 1080 | – |
| Cc1cccc(/C=C/C(=O)N(CC(C)C)[C@@H]2CC[C@@]3(O)[C@H]4Cc5ccc(O)c6c5[C@@]3(CCN4CC3CC3)[C@H]2O6)c1 [Compound 57, 17-cyclopropylmethyl-3,14β-dihydroxy-4,5α-epoxy-6β-(N-isobutyl-3-methylcinnamamido)morphinan] | – | 660 |
| CC(C)CN(C(=O)CCCCCc1ccccc1)[C@@H]1CC[C@@]2(O)[C@H]3Cc4ccc(O)c5c4[C@@]2(CCN3CC2CC2)[C@H]1O5 [Compound 58, 17-cyclopropylmethyl-3,14β-dihydroxy-4,5α-epoxy-6β-(N-isobutyl-6-phenylhexanoamido)morphinan] | 100 | – |
| CC(C)CN(C(=O)CCCCCCCc1ccccc1)[C@@H]1CC[C@@]2(O)[C@H]3Cc4ccc(O)c5c4[C@@]2(CCN3CC2CC2)[C@H]1O5 [Compound 59, 17-cyclopropylmethyl-3,14β-dihydroxy-4,5α-epoxy-6β-(N-isobutyl-8-phenyloctanoamido) morphinan] | 480 | – |
| CC(C)CN(C(=O)CCCCCCCCCCc1ccccc1)[C@@H]1CC[C@@]2(O)[C@H]3Cc4ccc(O)c5c4[C@@]2(CCN3CC2CC2)[C@H]1O5 [Compound 60, 17-cyclopropylmethyl-3,14β-dihydroxy-4,5α-epoxy-6β-(N-isobutyl-11-phenylundecanoamido)morphinan] | 90 | – |
| CC(C)CN(C(=O)CCCCC(=O)c1ccccc1)[C@@H]1CC[C@@]2(O)[C@H]3Cc4ccc(O)c5c4[C@@]2(CCN3CC2CC2)[C@H]1O5 [Compound 61, 17-cyclopropylmethyl-3,14β-dihydroxy-4,5α-epoxy-6β-(N-isobutyl-5-benzoylpentanoamido)morphinan] | 2220 | – |
